From patent US20250179027A1, “CYCLOALKYL OR HETEROCYCLYL SUBSTITUTED HETEROARYL COMPOUND, AND COMPOSITION AND USE THEREOF” (Shenzhen TargetRx, Inc., priority 2022, published 2025) come the findings set out here.

What all share (type): biochemical
What all share (settings): HTRF TK kit

For experiment [1], the target named is T1, EGFR (Homo sapiens, UniProt P00533).
T1 construct: purchased Carna 08-115
The experiment in a line: HTRF kinase activity inhibition assay, EGFR. The text has this:
(§1) In this assay, the HTRF TK Kit (Catalog No. 62TKOPEC) provided by Cisbio was used to detect the inhibitory activity of compounds on BTK kinase and BTK C481S kinase and the selectivity of compounds relative to EGFR, ITK and TEC kinases.
(§2) Reagents and consumables: BTK kinase (Invitrogen, Catalog No. PV3587), BTK C481S (Carna, Product No. 08-547), ITK (Carna, Product No. 08-181), EGFR (Carna, Product No. 08-115), TEC (Carna, Product No. 08-182), HTRF-TK kit (Cisbio, Product No. 62TKOPEC), MgCl2 (Sigma, Product No. M1028), MnCl2 (Sigma, Product No. M1787), DTT (Sigma, Product No. D0632), ATP (Sigma, Product No. A7699-1 g), DMSO (Sigma, Product No. D2650), 384-well plate (PE, Product No. 6008280).
(§3) The entire operation steps were carried out on ice, and the total reaction volume was 10 μL. The compound (4 μL), substrate and ATP (4 μL), kinase (2 μL) were added in sequence to a 384-well plate, and shaked for 30 seconds. After an appropriate time at room temperature, the detection reagent was added. After 1 hour at room temperature, the plate was detected with a microplate reader. The specific steps were as follows: • a) 1× kinase buffer solution required for kinase detection was calculated according to the amount of the detection compound, and prepared as needed; • b) compounds with 2.5×working concentration were prepared, the 100 times gradient concentration solution of compounds was diluted by 4 μL to the desired concentration, mixed well, and added to each well at 4 μL per well; • c) 5×working concentration of substrate and ATP were prepared, mixed in a ratio of 1:1 before adding to a 384-well plate, and added to each well at 4 μL per well; • d) 5×working concentration of kinase was prepared, and 2 μL was added to each well; • e) the plate was shaked on a microplate oscillator for 30 seconds, sealed with a sealing membrane, and reacted at room temperature for an appropriate time; • f) 4×working concentrations of streptavidin XL-665 and TK antibody-cryptate compound were prepared, mixed in a ratio of 1:1 before adding to a 384-well plate, and added to each well at 10 μL per well; • g) the plate was read after reacting at room temperature for 1 hour; • h) the wells with only substrate, ATP and 1% DMSO added but no kinase were blank control wells, and the wells with only substrate, ATP, 1% DMSO and kinase were positive control wells.
(§4) Readings: The values of 620 nm (cryptate) and 665 nm (XL665) were read with a BioTek Synerg Neo2 microplate reader, the ratio of 665/620 per well was calculated, and the data were exported. Data analysis: IC50 was calculated using GraphPad Prism 7.0 software. The following nonlinear fitting formula was used to obtain the IC50 (half inhibitory concentration) of compounds:
(§5) [formula] • X: Compound concentration log value • Y: Inhibition rate (% inhibition)
(§6) The kinase inhibition rate (% inhibition rate) was calculated as: […]

Experiment [2] has as its target T2, TEC (Homo sapiens, UniProt P42680).
T2 construct: purchased Carna 08-182
T2 sequence (P42680 1-631): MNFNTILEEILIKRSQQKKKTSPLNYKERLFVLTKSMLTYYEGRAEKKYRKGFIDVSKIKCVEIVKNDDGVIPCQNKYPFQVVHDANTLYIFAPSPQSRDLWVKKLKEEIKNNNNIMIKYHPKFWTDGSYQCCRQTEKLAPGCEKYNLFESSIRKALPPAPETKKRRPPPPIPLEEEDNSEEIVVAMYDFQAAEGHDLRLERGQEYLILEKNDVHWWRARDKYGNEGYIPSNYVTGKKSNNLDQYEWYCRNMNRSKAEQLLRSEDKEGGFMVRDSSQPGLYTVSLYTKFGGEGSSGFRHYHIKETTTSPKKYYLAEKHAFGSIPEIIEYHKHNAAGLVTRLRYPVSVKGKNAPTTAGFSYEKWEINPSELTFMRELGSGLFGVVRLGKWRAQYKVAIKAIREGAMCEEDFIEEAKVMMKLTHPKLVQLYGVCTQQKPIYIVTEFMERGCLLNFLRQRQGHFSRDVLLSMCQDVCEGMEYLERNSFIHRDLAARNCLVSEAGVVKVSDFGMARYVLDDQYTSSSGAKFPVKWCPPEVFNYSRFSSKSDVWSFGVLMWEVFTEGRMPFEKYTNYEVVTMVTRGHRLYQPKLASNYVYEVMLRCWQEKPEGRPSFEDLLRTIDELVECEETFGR
Kind of experiment: HTRF kinase activity inhibition assay, TEC.
Text: as §1, §2, §3, §4, §5, §6

In experiment [3] the target is T3, ITK (Homo sapiens, UniProt Q08881).
T3 construct: purchased Carna 08-181
T3 sequence (Q08881 1-620): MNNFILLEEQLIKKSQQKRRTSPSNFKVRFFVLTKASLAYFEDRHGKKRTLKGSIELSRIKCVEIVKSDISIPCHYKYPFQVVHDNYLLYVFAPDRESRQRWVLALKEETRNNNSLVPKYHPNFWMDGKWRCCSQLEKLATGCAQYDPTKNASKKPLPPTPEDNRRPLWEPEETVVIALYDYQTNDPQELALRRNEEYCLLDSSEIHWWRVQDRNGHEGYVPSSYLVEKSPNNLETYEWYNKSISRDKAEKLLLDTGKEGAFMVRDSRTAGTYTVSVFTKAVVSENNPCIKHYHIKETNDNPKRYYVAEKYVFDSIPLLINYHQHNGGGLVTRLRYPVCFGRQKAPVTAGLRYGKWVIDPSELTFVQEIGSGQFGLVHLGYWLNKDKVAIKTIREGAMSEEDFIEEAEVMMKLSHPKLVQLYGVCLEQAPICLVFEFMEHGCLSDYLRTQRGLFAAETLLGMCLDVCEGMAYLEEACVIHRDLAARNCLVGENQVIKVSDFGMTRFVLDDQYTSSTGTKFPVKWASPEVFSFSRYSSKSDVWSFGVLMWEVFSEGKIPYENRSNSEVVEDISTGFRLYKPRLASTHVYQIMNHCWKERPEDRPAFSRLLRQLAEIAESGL
Kind of experiment: HTRF kinase activity inhibition assay, ITK.
Text: as §1, §2, §3, §4, §5, §6

T1 sequence (P00533 669-1210 limits assumed): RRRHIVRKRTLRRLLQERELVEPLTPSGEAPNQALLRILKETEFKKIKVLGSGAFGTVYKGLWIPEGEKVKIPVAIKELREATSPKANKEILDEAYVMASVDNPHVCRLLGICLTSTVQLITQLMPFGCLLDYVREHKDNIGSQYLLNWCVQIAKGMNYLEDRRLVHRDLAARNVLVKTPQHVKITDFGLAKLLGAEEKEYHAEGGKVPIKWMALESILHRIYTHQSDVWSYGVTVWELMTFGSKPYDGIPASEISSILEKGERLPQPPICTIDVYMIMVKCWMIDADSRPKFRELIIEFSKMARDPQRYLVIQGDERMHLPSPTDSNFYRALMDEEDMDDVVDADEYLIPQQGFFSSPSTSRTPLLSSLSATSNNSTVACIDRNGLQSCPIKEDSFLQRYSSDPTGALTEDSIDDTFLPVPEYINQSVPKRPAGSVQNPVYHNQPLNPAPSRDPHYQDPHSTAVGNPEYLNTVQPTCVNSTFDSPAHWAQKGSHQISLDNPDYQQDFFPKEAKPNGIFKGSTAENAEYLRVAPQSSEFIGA

As for `COc1ccc(F)cc1C(=O)NCc1ccc(-c2nn(C3CCCC(O)C3)c3ncnc(N)c23)cc1` (single isomer, unassigned) [Example 6], the IC50 in experiment [1] is 50 to 100 nM; in experiment [2], 100 to 1000 nM; in experiment [3], above 10000 nM.

Turning to `COc1ccc(F)cc1C(=O)NCc1ccc(-c2cc(C3CCC(CO)OC3)n3ncnc(N)c23)cc1` (single isomer, unassigned) [Example 60, N-(4-(4-amino-7-(6-(hydroxymethyl)tetrahydro-2H-pyran-3-yl)pyrrolo[2,1-f][1,2,4]triazin-5-yl)benzyl)-5-fluoro-2-methoxybenzamide], the concentration for half-maximal inhibition (IC50) in experiment [1] was at most 10 nM; in experiment [2], 100 to 1000 nM; in experiment [3], above 10000 nM.

On to `COc1ccc(F)cc1C(=O)NCc1ccc(-c2nn([C@H]3CC[C@@H](CO)CC3)c3ncnc(N)c23)cc1` [Example 55, cis-N-(4-(4-amino-1-((1S,4S)-4-(hydroxymethyl)cyclohexyl)-1H-pyrazolo[3,4-d]pyrimidin-3-yl)benzyl)-5-fluoro-2-methoxybenzamide], for which the IC50 is 10 to 50 nM in experiment [1], 100 to 1000 nM in experiment [2] and above 10000 nM in experiment [3].

For the compound `COc1ccc(F)cc1C(=O)NCc1ccc(-c2nn([C@H]3CC[C@@H](O)CC3)c3ncnc(N)c23)cc1` [Example 30, N-(4-(4-amino-1-((1S,4S)-4-hydroxycyclohexyl)-1H-pyrazolo[3,4-d]pyrimidin-3-yl)benzyl)-5-fluoro-2-methoxybenzamide], the IC50 in experiment [1] is 50 to 100 nM; in experiment [2] it was 100 to 1000 nM; in experiment [3] it was above 10000 nM.

Regarding `COc1ccc(F)cc1C(=O)NCc1ccc(-c2nn(C3CCCC(O)C3)c3ncnc(N)c23)cc1` (single isomer, unassigned) [Example 5], the IC50 in experiment [1] is 50 to 100 nM; in experiment [2], 100 to 1000 nM; in experiment [3], above 10000 nM.

With `COc1ccc(F)cc1C(=O)NCc1ccc(-c2nn(C3CCC(O)C3)c3ncnc(N)c23)cc1` (single isomer, unassigned) [Example 31, N-(4-(4-amino-1-(3-hydroxycyclopentanyl)-1H-pyrazolo[3,4-d]pyrimidin-3-yl)benzyl)-5-fluoro-2-methoxybenzamide], the results for the IC50 in experiment [1], in experiment [2] and in experiment [3] were 100 to 1000 nM, 100 to 1000 nM and above 10000 nM, respectively.

As to `COc1ccc(F)cc1C(=O)NCc1ccc(-c2nn(C3CCCC(O)C3)c3ncnc(N)c23)cc1` (single isomer, unassigned) [Example 7], the results for the IC50 in experiment [1], in experiment [2] and in experiment [3] were 100 to 1000 nM, 100 to 1000 nM and above 10000 nM, respectively.

Regarding `COc1ccc(F)cc1C(=O)NCc1ccc(-c2nn(C3CCC(O)CC3)c3ncnc(N)c23)cc1` [Example 29, N-(4-(4-amino-1-((1R,4R)-4-hydroxycyclohexyl)-1H-pyrazolo[3,4-d]pyrimidin-3-yl)benzyl)-5-fluoro-2-methoxybenzamide], the concentration for half-maximal inhibition (IC50) was 50 to 100 nM in experiment [1], 100 to 1000 nM in experiment [2] and above 10000 nM in experiment [3].

In the case of `COc1ccc(F)cc1C(=O)NCc1ccc(-c2nn([C@H]3CC[C@H](CO)CC3)c3ncnc(N)c23)cc1` [Example 56, trans-N-(4-(4-amino-1-((1R,4R)-4-(hydroxymethyl)cyclohexyl)-1H-pyrazolo[3,4-d]pyrimidin-3-yl)benzyl)-5-fluoro-2-methoxybenzamide], the IC50 in experiment [1] was 10 to 50 nM; in experiment [2], 100 to 1000 nM; in experiment [3], above 10000 nM.

For `COc1ccc(F)cc1C(=O)NCc1ccc(-c2cc(C3CCC(CO)OC3)n3ncnc(N)c23)cc1` (single isomer, unassigned) [Example 59, N-(4-(4-amino-7-(6-(hydroxymethyl)tetrahydro-2H-pyran-3-yl)pyrrolo[2,1-f][1,2,4]triazin-5-yl)benzyl)-5-fluoro-2-methoxybenzamide], the half-inhibitory concentration (IC50) in experiment [1] is 10 to 50 nM; in experiment [2], 1000 to 10000 nM; in experiment [3] it was above 10000 nM.

For the compound `COc1ccc(F)cc1C(=O)NCc1ccc(-c2nn(C3CCCC(O)C3)c3ncnc(N)c23)cc1` (single isomer, unassigned) [Example 8], the values for the IC50 in experiment [1], in experiment [2] and in experiment [3] were 100 to 1000 nM, 1000 to 10000 nM and above 10000 nM, respectively.

On to `COc1ccc(F)cc1C(=O)NCc1ccc(-c2nn(C3CCCC(O)C3)c3ncnc(N)c23)cc1` (stereo not drawn) [Example 4], for which the half-inhibitory concentration (IC50) was 100 to 1000 nM in experiment [1], 100 to 1000 nM in experiment [2] and above 10000 nM in experiment [3].

Consider `COc1ccc(F)cc1C(=O)NCc1ccc(-c2nn(C3CCC(CO)OC3)c3ncnc(N)c23)cc1` (single isomer, unassigned) [Example 18, N-(4-(4-amino-1-(6-(hydroxymethyl)tetrahydro-2H-pyran-3-yl)-1H-pyrazolo[3,4-d]pyrimidin-3-yl)benzyl)-5-fluoro-2-methoxybenzamide], for which the IC50 in experiment [1] is 50 to 100 nM; in experiment [2], 100 to 1000 nM; in experiment [3] it was above 10000 nM.

As to `COc1ccc(F)cc1C(=O)NCc1ccc(-c2nc(C3CCCC(O)C3)n3ccnc(N)c23)cc1` (single isomer, unassigned) [Example 22, N-(4-(8-amino-3-(3-hydroxycyclohexanyl)imidazo[1,5-a]pyrazin-1-yl)benzyl)-5-fluoro-2-methoxybenzamide], the IC50 in experiment [1] is 10 to 50 nM; in experiment [2], 100 to 1000 nM; in experiment [3] it was above 10000 nM.

On to `COc1ccc(F)cc1C(=O)NCc1ccc(-c2nc(C3CCCC(O)C3)n3ccnc(N)c23)cc1` (stereo not drawn) [Example 20, N-(4-(8-amino-3-(3-hydroxycyclohexanyl)imidazo[1,5-a]pyrazin-1-yl)benzyl)-5-fluoro-2-methoxybenzamide], for which the results for the IC50 in experiment [1], in experiment [2] and in experiment [3] were 10 to 50 nM, 100 to 1000 nM and above 10000 nM, respectively.
